Source: patent US7935709B2, “2-quinazolinone compounds and methods of use” (Amgen Inc., priority 2006, dated 2011)
pIC50: −log10 of the molar value.

What was measured:
[1] = tested on: TNF-α secretion by THP1 cells; experiment: Lipopolysaccharide-Activated THP1 Cell TNF Production Assay (THP-cellular TNF release assay); type: cell-based; details: Homo sapiens, THP-1, LPS-activated THP1 cells
Procedure: Lipopolysaccharide-Activated THP1 Cell TNF Production Assay
THP1 cells are re-suspended in fresh THP1 media (RPMI 1640, 10% heat-inactivated FBS, 1XPGS, 1XNEM, plus 30 μM βME) at a concentration of 1E6/mL. One hundred microliters of cells per well were plated in a polystyrene 96-well tissue culture. One microgram per mL of bacterial LPS is prepared in THP1 media and is transferred to the wells. Test compounds are dissolved in 100% DMSO and are serially diluted 3 fold in a polypropylene 96-well microtiter plate (drug plate). HI control and LO control wells contain only DMSO. One microliter of test compound from the drug plate followed by 10 μL of LPS were transferred to the cell plate. The treated cells are induced to synthesize and secrete TNF-α at 37° C. for 3 h. Forty microliters of conditioned media are transferred to a 96-well polypropylene plate containing 110 μL of ECL buffer (50 mM Tris-HCl pH 8.0, 100 mM NaCl, 0.05% Tween 20, 0.05% NaN3 and 1% FBS) supplemented with 0.44 nM MAB610 monoclonal Ab (R&D Systems), 0.34 nM ruthenylated AF210NA polyclonal Ab (R&D Systems) and 44 μg/mL sheep anti-mouse M280 Dynabeads (Dynal). After a 2 h incubation at room temperature with shaking, the reaction is read on the ECL M8 Instrument (IGEN Inc.). A low voltage is applied to the ruthenylated TNF-α immune complexes, which in the presence of TPA (the active component in Origlo), results in a cyclical redox reaction generating light at […]. The amount of secreted TNF-αin the presence of compound compared with that in the presence of DMSO vehicle alone (HI control) is calculated using the formula: % control (POC)=(cpd−average LO)/(average HI−average LO)*100. Data (consisting of POC and inhibitor concentration in μM) is fitted to a 4-parameter equation (y=A+((B−A)/(1+((x/C)^D))), where A is the minimum y (POC) value, B is the maximum y (POC), C is the x (cpd concentration) at the point of inflection and D is the slope factor) using a Levenburg-Marquardt non-linear regression algorithm.

[2] = tested on: TNF production by monocytes; experiment: Lipopolysaccharide-Activated Monocyte TNF Production Assay (LPS induced TNF release); type: cell-based; details: Homo sapiens, LPS-activated adherent monocytes from PBMCs
Procedure: Lipopolysaccharide-Activated Monocyte TNF Production Assay
Test compounds were evaluated in vitro for the ability to inhibit the production of TNF by monocytes activated with bacterial lipopolysaccharide (LPS). Fresh residual source leukocytes (a byproduct of plateletpheresis) were obtained from a local blood bank, and peripheral blood mononuclear cells (PBMCs) were isolated by density gradient centrifugation on Ficol-Paque Plus (Pharmacia). PBMCs were suspended at 2×10^6/mL in DMEM supplemented to contain 2% FCS, 10 mM, 0.3 mg/mL […], 100 U/mL penicillin G and […] streptomycin sulfate (complete media). Cells were plated into Falcon flat bottom, 96 well culture plates (200 μL/well) and cultured overnight at 37° C. and 6% CO2. Non-adherent cells were removed by washing with 200 μl/well of fresh medium. Wells containing adherent cells (˜70% monocytes) were replenished with 100 μL of fresh medium.
Preparation of Test Compound Stock Solutions
Test compounds were dissolved in […]. Compound stock solutions were prepared to an initial concentration of […]. Stocks were diluted initially to 20-200 μM in complete media. Nine two-fold serial dilutions of each compound were then prepared in complete medium. Treatment of cells with test compounds and activation of TNF production with lipopolysaccharide.
One hundred microliters of each test compound dilution were added to microtiter wells containing adherent monocytes and 100 μL complete medium. Monocytes were cultured with test compounds for 60 min at which time 25 μL of complete medium containing 30 ng/mL lipopolysaccharide from E. coli K532 were added to each well. Cells were cultured an additional 4 hrs. Culture supernatants were then removed and TNF presence in the supernatants was quantified using an ELISA.
Flat bottom, 96 well Corning High Binding ELISA plates were coated overnight (4° C.) with 150 μL/well of 3 μg/mL murine anti-human TNF-α MAb (R&D Systems #MAB210). Wells were then blocked for 1 h at room temperature with 200 μL/well of CaCl2-free ELISA buffer supplemented to contain 20 mg/mL BSA (standard ELISA buffer: […], 150 mM NaCl, 2 mM CaCl2, 0.15 mM thimerosal, pH 7.4). Plates were washed and replenished with 100 μL of test supernatants (diluted 1:3) or standards. Standards consisted of eleven 1.5-fold serial dilutions from a stock of 1 ng/mL recombinant human TNF (R&D Systems). Plates were incubated at room temperature for 1 h on orbital shaker (300 rpm), washed and replenished with 100 μL/well of 0.5 μg/mL goat anti-human TNF-α(R&D systems #AB-210-NA) biotinylated at a 4:1 ratio. Plates were incubated for 40 min, washed and replenished with 100 μL/well of alkaline phosphatase-conjugated streptavidin (Jackson ImmunoResearch #016-050-084) at 0.02 μg/mL. Plates were incubated 30 min, washed and replenished with 200 μL/well of 1 mg/mL of p-nitrophenyl phosphate. After 30 min, plates were read at 405 nm on a Vmax plate reader.
Standard curve data were fit to a second order polynomial and unknown TNF-α concentrations determined from their OD by solving this equation for concentration. TNF concentrations were then plotted vs. test compound concentration using a second order polynomial. This equation was then used to calculate the concentration of test compounds causing a 50% reduction in TNF production.

Row | SMILES | pIC50 [1] | pIC50 [2]
1 | Cc1ccncc1-c1ccc2c(c1)CNC(=O)N2c1ccccc1Cl [Example 4, 1-(2-Chlorophenyl)-6-(4-methylpyridin-3-yl)-3,4-dihydroquinazolin-2(1H)-one] | ≥ 5.60 | ≥ 4.60
2 | Cc1ccc(C(=O)NC2CC2)cc1-c1ccc2c(c1)CNC(=O)N2c1ccccc1C [Example 5, N-Cyclopropyl-4-methyl-3-(2-oxo-1-o-tolyl-1,2,3,4-tetrahydroquinazolin-6-yl)benzamide] | – | ≥ 4.60
3 | Cc1ccc(C(=O)NC2CC2)cc1-c1ccc2c(cnc(=O)n2-c2ccccc2C)c1 [Example 6, N-Cyclopropyl-4-methyl-3-(2-oxo-1-o-tolyl-1,2-dihydroquinazolin-6-yl)benzamide] | – | ≥ 4.60
4 | Cc1ccc(C(=O)NC2CC2)cc1-c1ccc2c(cnc(=O)n2CCN2CCOCC2)c1 [Example 8, N-Cyclopropyl-4-methyl-3-(1-(2-morpholinoethyl)-2-oxo-1,2-dihydroquinazolin-6-yl)benzamide] | – | ≥ 4.60
5 | Cc1ccc(C(=O)NC2CC2)cc1-c1ccc2c(cnc(=O)n2C2CCN(C(=O)OC(C)(C)C)CC2)c1 [Example 10, tert-Butyl 4-(6-(5-(cyclopropylcarbamoyl)-2-methylphenyl)-2-oxoquinazolin-1(2H)-yl)piperidine-1-carboxylate] | – | ≥ 4.60
6 | Cc1ccc(C(=O)NC2CC2)cc1-c1ccc2c(c1)CNC(=O)N2c1ccccc1Cl [Example 11, 3-(1-(2-chlorophenyl)-2-oxo-1,2,3,4-tetrahydro-6-quinazolinyl)-N-cyclopropyl-4-methylbenzamide] | – | ≥ 4.60
7 | Cc1ccc(C(=O)NC2CC2)cc1-c1cnc2c(c1)CNC(=O)N2c1ccccc1Cl [Example 12, 3-(1-(2-chlorophenyl)-2-oxo-1,2,3,4-tetrahydropyrido[2,3-d]pyrimidin-6-yl)-N-cyclopropyl-4-methylbenzamide] | ≥ 5.60 | ≥ 4.60
8 | Cc1ccc(C(=O)NC2CC2)cc1-c1ccc2c(cnc(=O)n2C2CCOCC2)c1 [Example 13, N-cyclopropyl-4-methyl-3-(2-oxo-1-(tetrahydro-2H-pyran-4-yl)-1,2-dihydro-6-quinazolinyl)benzamide] | – | ≥ 4.60

Now from value to molecule:

Row | pIC50 [1] | pIC50 [2] | SMILES
9 | ≥ 5.60 | ≥ 4.60 | O=c1ncc2cc(Cl)ccc2n1Cc1ccccc1 [Example 1, 1-Benzyl-6-chloroquinazolin-2-(1H)-one]
10 | ≥ 5.60 | ≥ 4.60 | COc1ccc(CN2Cc3cc(-c4cc(C(=O)NC5CC5)ccc4C)ccc3NC2=O)cc1 [Example 2, 3-(3-(4-Methoxybenzyl)-2-oxo-1,2,3,4-tetrahydroquinazolin-6-yl)-N-cyclopropyl-4-methylbenzamide]
11 | – | ≥ 4.60 | Cc1ccc(C(=O)NC2CC2)cc1-c1ccc2c(cnc(=O)n2-c2ccccc2Cl)c1 [Example 3]
